Source: paper PMC7913412, “Identification and characterization of heteroclitic peptides in TCR-binding positions with improved HLA-binding efficacy” (Journal of Translational Medicine, 2021)

Biological target: H2-Db molecule (Mus musculus, UniProt P01899)
Test: Peptide binding affinity assay on TAP-deficient RMA-S cells (anti-H-2Db staining, flow cytometry)
Type: cell-based
Conditions: 3 x 10^5 cells/well, peptide 1, 5, 10 μM, 4 h at 37 °C, anti-H-2Db antibody, flow cytometry MFI, triplicate
Experimental: Peptide binding affinity to H2-Db molecule was performed for each selected peptide. Tap-deficient mouse derived H-2Db RMA-S cells were cultured for 24 h at 26 °C to accumulate empty MHC-I molecules on the cell surface. Cells were washed in serum-free medium and incubated at 3 × 10^5 cells/well with varying concentrations of peptides (1 μM, 5 μM, 10 μM) for 4 h at 37 °C with 5% CO2. Cells were harvested, washed with phosphate-buffered saline (1 × PBS; Gibco Life Technologies), stained with anti-H-2Db fluorescent monoclonal antibody (cat. 1157535; SONY) and analyzed by flow cytometry. All the experiments were performed in triplicate.
In order to experimentally confirm the binding of heteroclitic peptides to H-2 Db molecule, the H-2 Db positive RMA-S cell line was loaded with different concentrations (1 μM, 5 μM, 10 μM) of selected heteroclitic peptides modified in p4 with a predicted affinity higher than the wt peptide.

Sequence of H2-Db molecule (P01899 whole entry, looked up): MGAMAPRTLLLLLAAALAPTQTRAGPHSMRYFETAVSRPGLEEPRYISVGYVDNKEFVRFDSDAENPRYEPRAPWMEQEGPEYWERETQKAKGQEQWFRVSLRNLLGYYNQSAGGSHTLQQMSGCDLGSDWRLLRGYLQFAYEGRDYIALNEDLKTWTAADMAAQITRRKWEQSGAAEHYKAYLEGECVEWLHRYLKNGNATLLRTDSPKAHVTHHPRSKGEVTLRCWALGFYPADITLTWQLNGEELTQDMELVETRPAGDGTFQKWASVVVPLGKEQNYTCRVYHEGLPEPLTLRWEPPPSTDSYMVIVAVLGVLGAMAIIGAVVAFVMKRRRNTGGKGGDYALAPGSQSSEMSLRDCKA

Row | Sequence | Binding to H-2Db compared with the wt peptide (in words)
1 | RAHWNIVTF [RAHWNIVTF (MUT418), heteroclitic HPV-E7 peptide, Trp at p4] | strongest binding
2 | SVYCFFVWL [SVYCFFVWL (MUT41), heteroclitic Trp2 peptide, Cys at p4] | binding lower than the wt
3 | SVYEFFVWL [SVYEFFVWL (MUT42), heteroclitic Trp2 peptide, Glu at p4] | binding lower than the wt
4 | SVYWFFVWL [SVYWFFVWL (MUT417), heteroclitic Trp2 peptide, Trp at p4] | binding lower than the wt
